Reference: paper PMC10886891, “Enhanced Tumor Targeting and Antitumor Activity of Methylated β-Cyclodextrin-Threaded Polyrotaxanes by Conjugating Cyclic RGD Peptides” (Biomolecules, 2024)

What was measured:
[1] = Cholesterol solubilization (phase solubility); format: physicochemical; settings: pH 7.4, 24 h, 37 °C, n = 3
Method: Figure 2 (A) ^1H NMR spectra of Me- N3-PRX and cRGD-Me-PRX in D2O at 25 °C. (B) FT-IR spectra of Me-N3-PRX and cRGD-Me-PRX. (C) Time course of the cleavage of N-Trt end groups in Me-PRX, cRGD-Me-PRX, and cRGE-Me-PRX at pH 7.4 (open symbols) and pH 5.0 (closed symbols) at 37 °C. The data are expressed as the mean ± SD (n = 3). (D) Phase-solubility diagrams of cholesterol with Me-β-CD, cRGD-Me-β-CD, Me-PRX, cRGD-Me-PRX, and cRGE-Me-PRX at pH 7.4 (brown bars) and pH 5.0 (blue bars). The solubility of cholesterol was determined after incubation for 24 h at 37 °C. The data are expressed as the mean ± SD (n = 3; **** p < 0.0001; ns: not significant).
Another important aspect of Me-PRXs is the ability of released β-CDs to form an inclusion complex with intracellular cholesterol, because the interaction with intracellular cholesterol contributes to the induction of cell death. To assess this, the solubility of cholesterol was measured by incubating with Me-PRXs at pH 7.4 (physiological pH) and 5.0 (lysosomal pH) for 24 h was measured (Figure 2D). […] Additionally, the number of methyl groups of cRGD-Me-β-CD (12.5) was less than that of Me-β-CD (14.0), which may explain the reduced cholesterol solubilization capacity.

[2] = Biodistribution in 4T1 tumor-bearing mice; format: in vivo, BALB/c mice; settings: 24 h after i.v., Cy5.5-labeled; 500 mg/kg (Figure 7), 300 mg/kg; n = 6
Method: Animal experiments were approved by the Institutional Animal Care and Use Committee of Tokyo Medical and Dental University. Wild-type BALB/c mice (female, 8-weeks-old) were purchased from Japan SLC (Shizuoka, Japan). Cy5.5-labeled PRXs and CDs were intravenously administered to the mice at a dose of 300 mg/kg. After 24 h, the mice were anesthetized with an intraperitoneal injection of an anesthetized solution containing medetomidine hydrochloride (0.75 mg/kg), midazolam (4 mg/kg), and butorphanol tartrate (5 mg/kg). […] The mice were then perfused with saline, and the hearts, livers, lungs, spleens, kidneys, and tumors were harvested. The collected tissues (approximately 50 mg) were homogenized using a bead beater-type homogenizer (Beads Crusher μT-12; Taitec, Saitama, Japan) at 3000 rpm for 45 s. After centrifuging the homogenates (8000 rpm, 10 min), the supernatant was collected. The fluorescence intensities of the plasma and tissue homogenates were measured using Varioskan LUX at excitation and emission wavelengths of 673 and 707 nm, respectively. The amount of accumulated PRXs in the plasma and each tissue was calculated using the standard curve of Cy5.5-labeled Me-PRXs and Me-β-CDs, and the mean percentage of the injected dose per gram of tissue (ID %/g tissue) was determined for each sample.

[3] = Blood chemical analysis; format: in vivo, BALB/c mice; settings: 500 mg/kg i.v., 24 h
Method: The PRXs dissolved in PBS were intravenously administered at a dose of 500 mg/kg to female BALB/c mice (8 weeks). […] Plasma levels of blood urea nitrogen (BUN), creatinine (CRE), aspartate aminotransferase (AST), alanine aminotransferase (ALT), free cholesterol (F-CHO), cholesteryl esters (E-CHO), triglycerides (TG), and glucose (GLU) were measured using a Hitachi 7180 automatic analyzer (Hitachi, Tokyo, Japan). In addition, the mice were perfused with saline, and the major organs (heart, liver, spleen, lungs, and kidneys) were collected. The organs were fixed in 10% formalin solution for 1 d and embedded in paraffin. The paraffin blocks were cut into 3 μm sections, which were successively stained with H&E solution to assess histological alterations by bright-field microscope.

[4] = among various β-CD derivatives; cited from earlier work
Excerpt: Β-Cyclodextrin (β-CD) is a cyclic oligosaccharide comprising seven glucose units connected with α-1,4-linkages. Β-CD and its derivatives can incorporate various low-molecular-weight compounds, such as free cholesterol, into their hydrophobic cavity. Recently, the therapeutic applications of β-CD derivatives have received considerable attention, because they improve the pathology of various metabolic diseases, such as Niemann–Pick type C (NPC) disease, Alzheimer’s disease, and atherosclerosis, through the removal of excess free ch ...

[5] = test system: various cells, such as normal cells and apoptosis-resistant cells; settings: through interactions with cellular cholesterol; cited from earlier work
Excerpt: Β-Cyclodextrin (β-CD) is a cyclic oligosaccharide comprising seven glucose units connected with α-1,4-linkages. Β-CD and its derivatives can incorporate various low-molecular-weight compounds, such as free cholesterol, into their hydrophobic cavity. […] 3-Methyladenine (3-MA) is a commonly used inhibitor of autophagy that functions by inhibiting class III phosphoinositide 3-kinase (PI3K) activity, which plays a pivotal role in autophagy induction. […] To exclude the effects of 3-MA on 4T1 cell viability, cRGD-Me-PRX-t ...

[6] = test system: integrin αv (Itgav) mRNA in 4T1 cells; assay: Downregulation of integrin αv by siRNA (RT-PCR); format: cell-based, murine; settings: compared with siControl; 30 nM, 24 h, normalized to Gapdh, n = 4
Method: siRNAs against murine integrin subunit alpha V (siItgav; sense: 5′-[…]-3′, antisense: 5′-[…]-3′) and Mission siRNA universal negative control were purchased from Merck. The siRNAs were transfected into 4T1 cells using the Lipofectamine 3000 Transfection Reagent (Thermo Fisher Scientific) at 30 nM for 24 h according to the manufacturer’s instructions. Total RNA was extracted from 4T1 cells using the FastGene RNA Premium Kit (Nippon Genetics, Tokyo, Japan) following the manufacturer’s instructions. The total RNA concentration was measured using a NanoDrop One spectrophotometer (Thermo Fisher Scientific). Total RNA was then converted into cDNA using ReverTra Ace qPCR RT master mix (Toyobo, Osaka, Japan). RT-PCR was performed using the Thunderbird SYBR qPCR mix (Toyobo) on a CFX Connect Real-Time System (Bio-Rad, Hercules, CA, USA). The PCR primer sequences were as follows: murine integrin subunit alpha V (Itgav), forward: 5′-[…]-3′, reverse: 5′-[…]-3′, murine glyceraldehyde 3-phosphate dehydrogenase (Gapdh) forward: 5′-[…]-3′, reverse: 5′-[…]-3′. The PCR cycling conditions included a pre-denaturation at 95 °C for 1 min, followed by 40 cycles of denaturation at 95 °C for 15 s and extension at 60 °C for 30 s. The mRNA expression levels in each sample were determined by the comparative CT (ΔΔCT) method and were normalized to the expression levels of Gapdh.

[7] = test system: 4T1 cells; assay: Autophagic cell death: viability of 4T1 cells with 3-MA; format: cell-based, murine; settings: 2 mM 3-MA, 48 h
Method: To investigate the induction of autophagic cell death by cRGD-Me-PRXs, 4T1cells were pretreated with 2 mM 3-methyladenine (3-MA; Fujifilm Wako Pure Chemical) for 1 h, followed by treatment with cRGD-Me-PRXs (100 μM threaded β-CD) in the presence of 3-MA for 48 h at 37 °C. Cell viability was determined as described above.

Randomly methylated β-CD [Me-β-CD]
solubilization of cholesterol [1]: solubilization of cholesterol was observed | accumulation in kidney [2]: mostly accumulated in the kidney | hepatic and renal toxicity [3]: hepatic and renal toxicities | plasma AST ([3]; n = 6): increased | plasma BUN ([3]; n = 6): increased | plasma CRE ([3]; n = 6): increased | ability to form inclusion complexes with free cholesterol [4]: highest ability to form inclusion complexes with free cholesterol | apoptosis [5]: induced apoptosis

siItgav: siRNA against murine integrin subunit alpha V; sense: 5′-GACUUAGUUGUAGGAGCUU-3′, antisense: 5′-AAGCUCCUACAACUAAGUC-3′ (chemistry not given here)
expression level of integrin αv [6]: 32.9%

Cn1cnc(N)c2ncnc1-2 [3-MA, 3-methyladenine]
effect on 4T1 cell viability alone [7]: did not affect cell viability
